Experimental data published in paper PMC8269107, “Lipidation of Temporin-1CEb Derivatives as a Tool for Activity Improvement, Pros and Cons of the Approach” (International Journal of Molecular Sciences, 2021).
In brackets after ≈: the same amount, converted by molar mass. Where a SMILES comes first, the peptide text is derived from it. [ ]: non-standard residue; d: D form. The star is where a group is joined. Palmitoyl = CCCCCCCCCCCCCCCC(=O)*; Lauroyl = CCCCCCCCCCCC(=O)*; Pentanoyl = CCCCC(=O)*; AEEA = NCCOCCOCC(=O)O; Ahx = NCCCCCC(=O)O; βAla = NCCC(=O)O

Columns and labels:
[1] = test system: primary fibroblasts; experiment: Cytotoxicity, MTT assay; assay type: cell-based, human; settings: MTT, 24 h; for effect on cell viability (in words): fibroblasts, 1 to 50 µg/mL; for IC50: primary Fibroblasts
Experimental: (§1) Human dermal fibroblasts were obtained as previously reported from biopsies of healthy human skin of three donors undergoing a surgery. All procedures were approved by the Ethics Committee of Medicinal University of Gdansk (NKEBN/483/2011 and NKBBN/745/2019-2020). Immortalized human HaCaT keratinocytes (DKFZ Heidelberg, Germany) were obtained commercially.
(§2) Both types of cell lines were grown in Dulbecco′s Modified Eagle′s Medium (DMEM) (Sigma-Aldrich, Germany), containing […] of glucose, […] of L- glutamine, sodium pyruvate and sodium bicarbonate. Additionally, the medium was supplemented with 10% FCS (fetal calf serum, Sigma-Aldrich, Germany), 100 U/mL of penicillin and 100 μg/mL of streptomycin (Sigma-Aldrich, Germany). The cells were grown in standard culture dishes (BD, USA) in a humidified atmosphere with 5% CO2 at […], and the medium was changed every 2 days.
(§3) The fibroblasts and keratinocytes were seeded at density of 5500 cells per well into 96-well plates suspended in a medium supplemented with 10% FCS. After 24 h from seeding, the media were exchanged with serum- and antibiotic-free DMEM and tested peptides, dissolved in sterile water, which were added, yielding a final concentration ranging from 1 to 50 μg/mL. The cells were then incubated for the next 24 h. At the end of the experiment, the cells were treated with 20 μL of MTT (5 mg/mL in PBS). After 3 h of incubation in the presence of MTT dye, the DMEM medium was discarded and replaced with 6 mM HCl in isopropanol. When the purple crystals of formazan were fully solubilized, absorbance at 570 nm was read.

[2] = test system: keratinocytes (HaCaT); experiment: Cytotoxicity, MTT assay; assay type: cell-based, human; settings: MTT, 24 h; for IC50: Keratinocytes (HaCaT); for effect on cell viability (in words): keratinocytes, 1 to 50 µg/mL
Experimental: as §1, §2, §3

[3] = test system: S. aureus (PCM 2054) biofilm; experiment: Biofilm inhibition assay (MTT); assay type: cell-based, Staphylococcus aureus; settings: S. aureus biofilm development, 24 h post-inoculation
Experimental: In the case of bacteria, an overnight culture of S. aureus in Tryptic Soy Broth (TSB) supplemented with 2% glucose (TSB/+G) was used to prepare inoculum for the experiments. Briefly, 5 mL of 24 h culture was centrifuged at 5000× g, washed with sterile PBS and suspended in a fresh 2 × concentrated TSB/+G. In the case of yeasts, the overnight culture of C. albicans in Sabouraud dextrose broth (SB) was used for inoculum preparation. Similar to above, 5 mL of 24 h culture was centrifuged, washed with PBS and then suspended in sterile 2 × concentrated RPMI-1640 medium (with L-glutamine, without sodium bicarbonate) supplemented with 2% glucose (RPMI-1640/+G). In both cases, the cell concentration of the inoculum was about 1 × 10^7 cells per ml.
For the determination of the inhibitory concentration that reduced biofilm development by 50% (BIC50^, expressed in µg/mL), 100 µL inoculum in 2 × concentrated RPMI-1640/+G medium (in the case of C. albicans) or 2 x concentrated TSB/+G broth (in the case of S. aureus) was transferred to each well of 96-well plates containing 100 µL of serially diluted in water tested compounds. The final concentrations of the compounds were the same as those used in MIC determination studies. The 96-well plates were then incubated for 24 h at 37 °C and 35 °C in the case of bacteria and fungi, respectively. Viability of the microorganisms in the presence of the tested compounds was analyzed by means of MTT assay.
The reduction in biofilm viability was analyzed by means of MTT assay. Briefly, 20 μL of MTT solution (5 mg/mL in PBS) was added to prewashed wells with exchanged medium (180 μL of fresh medium) wells containing bacterial/yeast biofilms. Plates were then incubated in the dark for the next 3 h at 37 °C. After that time, the medium was replaced with 6 mM HCl in isopropanol and, when the reduced MTT was fully dissolved, the plates were read at 570 nm. Activity against fully developed 24 h old biofilm was described as biofilm eradication concentration (BEC50 expressed in µg/mL), which corresponded to the concentration of the compound able to reduce 50% of biofilm viability compared with the growth control.

[4] = test system: C.parapsilosis CCM 8260; experiment: MIC, broth microdilution; assay type: cell-based, Candida parapsilosis; settings: C.parapsilosis CCM 8260, 24 h
From the text: (§4) Escherichia coli (PCM 2057 = ATCC 25922), Staphylococcus aureus (PCM 2054 = ATCC 25923), Staphylococcus epidermidis (PCM 2118 = ATCC 14990), Bacillus subtilis (PCM 2224 = ATCC 9799), Bacillus cereus (PCM 482 = ATCC 10702) and Pseudomonas aeruginosa (PCM 499 = ATCC 10145) were obtained from the Polish Collection of Microorganisms. Fungi strains Candida albicans (CCM 8186 = CNTC 49/64), Candida glabrata (CCM 8270 = ATCC 90030), Candida parapsilosis (CCM 8260 = ATCC 22019) and Candida krusei (CCM 8271 = ATCC 6258) were acquired from the Czech Collection of Microorganisms. S. aureus USA300 (wild type strain), the reference strain of Klebsiella pneumoniae (ATCC 13883) and clinical isolates of Pseudomonas aeruginosa (PA1, PA2) collected from nonrelated patients admitted to the Stefan Zeromski Specialist Municipal Hospital in Krakow (Poland) were kindly provided by the research group of the Department of Microbiology, Faculty of Biochemistry, Biophysics and Biotechnology, Jagiellonian University, Krakow, Poland.
(§5) Luria-Bertani broth (LB) and Sabouraud Dextrose broth (SB) (Biocorp, Poland) were used for cultivation of bacteria and fungi strains, respectively. The antimicrobial activity of the peptides were analyzed through determination of MIC (minimal inhibitory concentration) parameters according to Clinical and Laboratory Standards (CLSI) guidelines developed for aerobic bacteria and yeasts, respectively. Mueller-Hinton broth (MHB) was used as the working medium for all bacterial strains, while in the case of fungi, RPMI-1640 (with L-glutamine, without sodium bicarbonate) growth medium buffered with MOPS (morpholinepropanesulfonic acid) and supplemented with 2% glucose was used. Inoculum was prepared from freshly grown cultures of microorganisms at their exponential phase of growth. […] Plates were then incubated for 24 h at 37 °C in the case of bacteria and at 35 °C in the case of fungi. After that time, absorbance was read at 590 nm with a Perkin Elmer plate reader. Cultures without peptide were treated as positive control, while uninoculated media were defined as negative control. All measurements were run at least in triplicate.

[5] = test system: B. subtilis PCM 2224; experiment: MIC, broth microdilution; assay type: cell-based, Bacillus subtilis; settings: B. subtilis PCM 2224, 24 h
From the text: as §4, §5

[6] = test system: C.krusei CCM 8271; experiment: MIC, broth microdilution; assay type: cell-based, Candida krusei; settings: C.krusei CCM 8271, 24 h
From the text: as §4, §5

[7] = test system: C.albicans CCM 8186; experiment: MIC, broth microdilution; assay type: cell-based, Candida albicans; settings: C.albicans CCM 8186, 24 h
From the text: as §4, §5

[8] = test system: B. cereus PCM 482; experiment: MIC, broth microdilution; assay type: cell-based, Bacillus cereus; settings: B. cereus PCM 482, 24 h
From the text: as §4, §5

Compound	effect on cell viability (in words) [1]	IC50 [1] [µg/mL]	IC50 [2] [µg/mL]	effect on cell viability (in words) [2]	BIC50 [3] [µg/mL]	MIC100 [4] [µg/mL]	MIC100 [5] [µg/mL]	MIC100 [6] [µg/mL]	MIC100 [7] [µg/mL]	MIC100 [8] [µg/mL]
CC[C@H](C)[C@H](NC(=O)COCCOCCNC(=O)[C@H](Cc1c[nH]cn1)NC(=O)CCNC(=O)CCCCCN)C(=O)N[C@@H](CCCCN)C(=O)N[C@@H](CCCCN)C(=O)N[C@H](C(=O)N[C@@H](CC(C)C)C(=O)N[C@@H](CO)C(=O)N[C@@H](CCCCN)C(=O)N[C@H](C(=O)N[C@@H](CCCCN)C(=O)N[C@@H](CCCCN)C(=O)N[C@@H](CC(C)C)C(=O)N[C@@H](CC(C)C)C(N)=O)[C@@H](C)CC)[C@@H](C)CC [AHX-CAR-PEG-DK5] (H-[Ahx][βAla]H[AEEA]IKKILSKIKKLL-NH2)	neutral or even pro-proliferative	>50	>50	neutral or even pro-proliferative	>50	50 (≈ 26.4 µM)	6.25 (≈ 3.31 µM)	>50	>50	>50
CC[C@H](C)[C@H](NC(=O)CCCCCN)C(=O)N[C@@H](CCCCN)C(=O)N[C@@H](CCCCN)C(=O)N[C@H](C(=O)N[C@@H](CC(C)C)C(=O)N[C@@H](CO)C(=O)N[C@@H](CCCCN)C(=O)N[C@H](C(=O)N[C@@H](CCCCN)C(=O)N[C@@H](CCCCN)C(=O)N[C@@H](CC(C)C)C(=O)N[C@@H](CC(C)C)C(N)=O)[C@@H](C)CC)[C@@H](C)CC [AHX-DK5] (H-[Ahx]IKKILSKIKKLL-NH2)	moderately toxic	50 (≈ 32.5 µM)	>50	moderately toxic	6.25	12.5 (≈ 8.13 µM)	0.78 (≈ 0.507 µM)	50 (≈ 32.5 µM)	12.5 (≈ 8.13 µM)	50 (≈ 32.5 µM)
CCCCC(=O)NCCC(=O)N[C@@H](Cc1c[nH]cn1)C(=O)NCCOCCOCC(=O)N[C@H](C(=O)N[C@@H](CCCCN)C(=O)N[C@@H](CCCCN)C(=O)N[C@H](C(=O)N[C@@H](CC(C)C)C(=O)N[C@@H](CO)C(=O)N[C@@H](CCCCN)C(=O)N[C@H](C(=O)N[C@@H](CCCCN)C(=O)N[C@@H](CCCCN)C(=O)N[C@@H](CC(C)C)C(=O)N[C@@H](CC(C)C)C(N)=O)[C@@H](C)CC)[C@@H](C)CC)[C@@H](C)CC [C5-CAR-PEG-DK5] ({Pentanoyl-βAla}-H[AEEA]IKKILSKIKKLL-NH2)	neutral or even pro-proliferative	>50	>50	neutral or even pro-proliferative	>50	50 (≈ 26.9 µM)	6.25 (≈ 3.36 µM)	>50	>50	>50
CCCCCCCCCCCC(=O)NCCC(=O)N[C@@H](Cc1c[nH]cn1)C(=O)NCCOCCOCC(=O)N[C@H](C(=O)N[C@@H](CCCCN)C(=O)N[C@@H](CCCCN)C(=O)N[C@H](C(=O)N[C@@H](CC(C)C)C(=O)N[C@@H](CO)C(=O)N[C@@H](CCCCN)C(=O)N[C@H](C(=O)N[C@@H](CCCCN)C(=O)N[C@@H](CCCCN)C(=O)N[C@@H](CC(C)C)C(=O)N[C@@H](CC(C)C)C(N)=O)[C@@H](C)CC)[C@@H](C)CC)[C@@H](C)CC [C12-CAR-PEG-DK5] ({Lauroyl-βAla}-H[AEEA]IKKILSKIKKLL-NH2)	–	12.5 (≈ 6.38 µM)	10 (≈ 5.1 µM)	–	–	3.13 (≈ 1.6 µM)	3.13 (≈ 1.6 µM)	12.5 (≈ 6.38 µM)	12.5 (≈ 6.38 µM)	>50
CCCCCCCCCCCCCCCC(=O)NCCC(=O)N[C@@H](Cc1c[nH]cn1)C(=O)NCCOCCOCC(=O)N[C@H](C(=O)N[C@@H](CCCCN)C(=O)N[C@@H](CCCCN)C(=O)N[C@H](C(=O)N[C@@H](CC(C)C)C(=O)N[C@@H](CO)C(=O)N[C@@H](CCCCN)C(=O)N[C@H](C(=O)N[C@@H](CCCCN)C(=O)N[C@@H](CCCCN)C(=O)N[C@@H](CC(C)C)C(=O)N[C@@H](CC(C)C)C(N)=O)[C@@H](C)CC)[C@@H](C)CC)[C@@H](C)CC [C16-CAR-PEG-DK5] ({Palmitoyl-βAla}-H[AEEA]IKKILSKIKKLL-NH2)	–	4 (≈ 1.98 µM)	1 (≈ 0.496 µM)	–	10	6.25 (≈ 3.1 µM)	12.5 (≈ 6.2 µM)	12.5 (≈ 6.2 µM)	25 (≈ 12.4 µM)	>50
CCCCCCCCCCCCCCCC(=O)N[C@H](C(=O)N[C@@H](CCCCN)C(=O)N[C@@H](CCCCN)C(=O)N[C@H](C(=O)N[C@@H](CC(C)C)C(=O)N[C@@H](CO)C(=O)N[C@@H](CCCCN)C(=O)N[C@H](C(=O)N[C@@H](CCCCN)C(=O)N[C@@H](CCCCN)C(=O)N[C@@H](CC(C)C)C(=O)N[C@@H](CC(C)C)C(N)=O)[C@@H](C)CC)[C@@H](C)CC)[C@@H](C)CC [Compound C16-DK5] (Palmitoyl-IKKILSKIKKLL-NH2)	–	7 (≈ 4.21 µM)	5 (≈ 3.01 µM)	–	6.25	–	3.13 (≈ 1.88 µM)	6.25 (≈ 3.76 µM)	>50	>50
